# pEC50: −log10 of the molar value. The source made the active and inactive calls.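 Rule for the calls: active = fitted half-maximal concentration for changing reporter fluorescence at or below a set limit; inactive = the rest.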
# Biological target: Citrate synthase, peroxisomal (Saccharomyces cerevisiae (strain ATCC 204508 / S288c)) (UniProt P08679)
# Assay: CIT2-GFP expression modulators in yeast, dose response, flow cytometry, MLPCN hits (AID 2744)
# Conditions: S. cerevisiae CIT2-GFP strain, 3 h; for GFP fluorescence, higher = induction: at 33 µM (top of the series); for pEC50: flow cytometry fluorescence
# Citrate synthase, peroxisomal (Saccharomyces cerevisiae (strain ATCC 204508 / S288c)), sequence (P08679 whole entry, looked up): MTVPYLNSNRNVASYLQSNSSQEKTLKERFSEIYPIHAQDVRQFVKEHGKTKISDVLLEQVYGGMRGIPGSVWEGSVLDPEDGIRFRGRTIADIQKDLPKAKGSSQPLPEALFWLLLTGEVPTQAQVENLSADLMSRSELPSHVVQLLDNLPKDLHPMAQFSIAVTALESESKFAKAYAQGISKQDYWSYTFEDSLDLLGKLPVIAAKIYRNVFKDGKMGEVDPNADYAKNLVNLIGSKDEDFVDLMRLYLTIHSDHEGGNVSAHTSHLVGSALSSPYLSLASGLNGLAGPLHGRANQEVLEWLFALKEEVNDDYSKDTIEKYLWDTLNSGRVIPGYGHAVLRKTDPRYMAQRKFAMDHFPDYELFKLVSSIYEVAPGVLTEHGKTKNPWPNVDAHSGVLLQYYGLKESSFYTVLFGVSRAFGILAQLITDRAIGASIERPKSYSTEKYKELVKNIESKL
SMILES,"GFP fluorescence, higher = induction",pEC50
O=C(C#Cc1cccc([N+](=O)[O-])c1)c1ccccc1,inactive,
O=C(NCc1ccc2c(c1)OCO2)c1nc(S(=O)(=O)Cc2ccccc2)ncc1Cl,inactive,
O=c1c2cc(Cl)ccc2nc(-c2ccc([N+](=O)[O-])cc2)n1O,inactive,
O=C1C=CC(=O)N1c1cccc(-c2ccccc2)c1,inactive,
CCCc1nnc(NC(=O)c2c(O)c3cccc4c3n(c2=O)CCC4)s1,inactive,
Cc1ccsc1/C=C1\C(=O)NC(=S)N(C)C1=O,inactive,
O=C(OCC(=O)N1CCN(C(=O)c2ccco2)CC1)c1cc(-c2ccc(Cl)c(Cl)c2Cl)nc2ccccc12,inactive,
Cc1ccc(C(=O)/C=C/C(=O)c2ccc(C)cc2)cc1,inactive,
CCc1ccc2c(c1)/C(=C/C(=O)c1cccs1)C(=O)N2,inactive,
CCc1nc2ccccc2c(=O)n1NC(=O)c1c(O)c2ccccc2n(CC)c1=O,inactive,
Cn1c(=O)c(C(=O)NNC(=O)c2ccc(Br)cc2)c(O)c2ccccc21,inactive,
CN(C)/C=C/C(=O)c1ccc(-c2ccc(Cl)cc2Cl)o1,inactive,
O=C(C#Cc1ccccc1)c1ccco1,inactive,
CNc1nc(N)c([N+](=O)[O-])c(Nc2cccc(F)c2)n1,,5.36
O=C1C=CC(=O)N1c1ccc(N2CCCCC2)cc1,inactive,
CC1=C/C(=N\OS(=O)(=O)c2ccccc2)C(C(C)C)=CC1=O,inactive,
COc1ccc([N+](=O)[O-])c(S(=O)(=O)c2ccccc2)n1,inactive,
O=C1C=CC(=O)N1N(c1ccccc1)c1ccccc1,inactive,
O=C(OCn1ncc(Br)c(Br)c1=O)c1ccccc1Cl,inactive,
COc1ccc(NC(=O)/C(C#N)=C/c2ncc([N+](=O)[O-])n2C)c(OC)c1,inactive,
CC(C)(C)C(=O)NC(=S)NNC(=O)c1ccc(-c2ccccc2)cc1,inactive,
O=C1C(Cl)=C(N2CCN(Cc3ccccc3)CC2)C(=O)N1c1ccccc1,inactive,
Cc1ccccc1C(=O)NNC(=S)NC(=O)c1ccc(Cl)cc1Cl,inactive,

SMILES,"GFP fluorescence, higher = induction",pEC50
Cc1ccc(/C=c2\sc3nc(-c4cccs4)nn3c2=O)o1,inactive,
Nc1ccc(Br)c2c1C(=O)c1ccccc1C2=O,inactive,
CCCOc1ccc(C(=O)NNC(=S)NC(=O)c2ccccc2)cc1,inactive,
COc1ccc2c(c1)S/C(=C\C(=O)c1ccncc1)N2C,inactive,
Cc1c(NC2=C(Cl)C(=O)N(c3ccccc3)C2=O)c(=O)n(-c2ccccc2)n1C,inactive,
Cc1c(C(=O)Nc2nc(-c3ccccn3)cs2)oc2ccccc12,inactive,
O=C(Nc1nnc(-c2ccc(F)cc2)o1)c1cc(Cl)sc1Cl,inactive,
CN1C(=O)/C(=N\OC(=O)c2cccc3ccccc23)c2ccccc21,inactive,
Cc1cccc(OCCN2CSC(=S)N(C)C2)c1,inactive,
C#CCOCCOCCOCCNc1nc(N2CCN(C(=O)CCCCCCCCCCNC(=O)[C@H](CCCCN)n3cc(CCO)nn3)CC2)nc(N2CCN(C(=O)CCCCCCCCCCNC(=O)[C@H](CCCN=C(N)N)n3cc(C[C@@H](C)CC)nn3)CC2)n1,inactive,
Cc1cc2ccccn2c1C(=O)c1ccc([N+](=O)[O-])o1,inactive,
CC(C)(C)c1cc(C(c2cccnc2)N2CCN(CCO)CC2)cc(C(C)(C)C)c1O (configuration not stated),inactive,
COc1cccc(N=Cc2nc(-c3ccccc3)oc2OC(C)=O)c1,inactive,
COc1cc(/C=C2\C(=O)ON=C2c2ccc(Cl)cc2)ccc1O,inactive,
O=C1CC(c2ccccc2)=NN1c1nc(-c2ccccc2)cs1,inactive,
Cc1cccc(N2C(=O)C(Cl)=C(Nc3c(C)n(C)n(-c4ccccc4)c3=O)C2=O)c1C,inactive,
CC(Oc1ccc2ccccc2c1)C(=O)NNC(=S)NC(=O)c1ccco1 (configuration not stated),inactive,
COc1cc(/C=C2\C(=O)ON=C2c2ccccc2)cc(Br)c1O,inactive,
Cc1ccc(N2C(=O)CC(Sc3ncn[nH]3)C2=O)cc1C (configuration not stated),inactive,
CCCCOc1ccc(C(=O)NNC(=S)NC(=O)CC)cc1,inactive,
O=[N+]([O-])c1cc(CN2CCN(c3cccc(C(F)(F)F)c3)CC2)c2cccnc2c1O,inactive,
N/C(=N\OC(=O)c1cccc(Br)c1)c1ccccc1,inactive,
O=C(Oc1oc(-c2ccco2)nc1C=Nc1ccccc1)c1ccco1,inactive,

SMILES,"GFP fluorescence, higher = induction",pEC50
O=C(/C=C/Sc1ncn[nH]1)c1ccc(Cl)cc1,inactive,
CC(Oc1ccc(Br)cc1)C(=O)Nc1nc(-c2ccccn2)cs1 (configuration not stated),inactive,
O=c1/c(=C/c2cccc3ccccc23)sc2ncnn12,inactive,
O=C1c2ccccc2C(=O)N1OS(=O)(=O)c1ccc(F)cc1,inactive,
O=[N+]([O-])c1cc(S(=O)(=O)C(F)(F)F)ccc1Sc1nc2ccccc2s1,inactive,
Nc1ccc2ccc3cccc[n+]3c2c1,inactive,
COc1cccc(/C=C2\SC(=S)N(CCCC(=O)Nc3ccc(C(=O)O)cc3)C2=O)c1,inactive,
O=C(Oc1c(Cl)cc(Cl)c2cccnc12)c1cccs1,inactive,
O=C(O)c1ccn2c(C(=O)c3ccccc3)c(-c3ccccc3)cc2c1,inactive,
O=c1cc(CSc2ccc(Cl)cc2)nc(-c2ccccn2)[nH]1,inactive,
CC(=O)Oc1oc(-c2ccccc2)nc1C=Nc1ccccc1,inactive,
COc1ccccc1[C@@]1(C)ON(c2ccccc2C(F)(F)F)C1=O,inactive,
O=[N+]([O-])c1ccc(-c2cn3nc(-c4ccccc4)c(-c4ccccc4)nc3n2)cc1,inactive,
N=C1/C(=C\c2coc3ccccc3c2=O)C(=O)N=C2SC(c3ccncc3)=NN12,,4.88
O=C1C=CC(=O)N1c1ccc(O)cc1,inactive,
CCC(=O)Oc1oc(-c2ccccc2)nc1C=Nc1ccc(C)cc1,inactive,
O=C(Oc1c(Cl)cc(Cl)c2cccnc12)c1cccc([N+](=O)[O-])c1,inactive,
N#Cc1ccc(N=c2ssnc2Cl)cc1,inactive,
O=C(O)c1cccc(S(=O)(=O)Nc2ccc(S(=O)(=O)N3CCOCC3)cc2)c1,inactive,
CCOc1ccc(C(C)=O)cc1N1C(=O)C2C3C=CC(O3)C2C1=O (configuration not stated),inactive,
O=C1ON=C(c2ccccc2)/C1=C\c1ccco1,inactive,

# Source: PubChem BioAssay AID2744 (NMMLSC, 2010)
